The values that follow come from US20260078130A1, “NAMPT MODULATORS, PREPARATIONS, AND USES THEREOF” (SIRONAX LTD., priority 2022, published 2026).

Test [1] addresses T1, human enzyme NAMPT (full length) (Homo sapiens, UniProt P43490).
T1 construct: human enzyme NAMPT (full length)
Kind of test: NMN fluorescence biochemical assay (stimulation of NMN synthesis by NAMPT). The conditions noted are these: for pEC50: concentration giving half-maximal activation, read-out: Enzymatic EC50; for Enzymatic Emax: fold change of maximal activation compared to DMSO. The procedure, abridged:
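Full-length human NAMPT (100 nM) was preincubated 15 min at 37 °C with compound in 50 mM Tris-HCl pH 7.5, 10 mM MgCl2, 2 mM DTT, then reacted 1 h at 37 °C with 50 μM NAM, 100 μM PRPP, 4 mM ATP (stated solution concentrations). NMN was derivatised with acetophenone/KOH then formic acid and read at Ex/Em 382/445 nm; EC50 and Emax (fold over DMSO) reported.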

For test [2], the system named is endogenous NAMPT in U2OS cells. Kind of test: Cellular NAD+ modulation assay (NAD/NADH-Glo, U2OS cells). The class given is cell-based. The conditions noted are these: Homo sapiens; for maximal fold induction: read-out: Cellular Emax. The procedure, abridged: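 Endogenous NAMPT stimulation in U2OS cells treated with compound dilution series for 24 h at 37 °C. Cells lysed with DTAB base, acid-treated 15 min at 60 °C, neutralized, NAD+ read by NAD/NADH-Glo luminescence after 40 min at room temperature. EC50 and Emax (fold over DMSO) derived.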

Where [3] appears, read: NMN synthesis by purified human NAMPT (100 nM).
The mark [4] stands for this setting: 24 hours incubation with compound.
Where [5] appears, read: NMN fluorescence assay, purified human NAMPT 100 nM.
The mark [6] stands for this setting: 24 hours incubation, cellular NAD+.

pEC50: −log10 of the molar value. Like-named read-outs stand apart in the source and are kept apart here.

T1 sequence (P43490 whole entry): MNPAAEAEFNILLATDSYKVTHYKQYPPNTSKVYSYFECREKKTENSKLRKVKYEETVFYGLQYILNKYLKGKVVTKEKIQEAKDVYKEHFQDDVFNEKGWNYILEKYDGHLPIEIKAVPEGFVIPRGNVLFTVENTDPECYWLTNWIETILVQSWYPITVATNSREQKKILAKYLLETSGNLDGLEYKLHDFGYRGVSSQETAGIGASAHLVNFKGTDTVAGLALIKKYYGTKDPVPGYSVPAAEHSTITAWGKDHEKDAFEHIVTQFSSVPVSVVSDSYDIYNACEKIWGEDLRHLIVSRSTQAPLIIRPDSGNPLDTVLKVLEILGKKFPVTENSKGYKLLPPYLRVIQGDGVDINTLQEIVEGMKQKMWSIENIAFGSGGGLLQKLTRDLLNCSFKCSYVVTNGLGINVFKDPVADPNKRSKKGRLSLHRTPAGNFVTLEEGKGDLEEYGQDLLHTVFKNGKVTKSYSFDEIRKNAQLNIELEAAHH

For `O=C1c2ccccc2C(Cc2nccc(F)c2Br)N1Cc1ccc2[nH]c(=O)oc2c1` (stereo not shown) [Compound 211, 6-((1-((3-bromo-4-fluoropyridin-2-yl)methyl)-3-oxoisoindolin-2-yl)methyl)benzo[d]oxazol-2(3H)-one], the pEC50 in test [1] (setting [3]) is greater than 6.30. The “Enzymatic Emax” value in test [1] is “A (A>3)”. Also, in test [2] (setting [4]), the pEC50 is greater than 6.30 and the maximal fold induction was greater than 1.5.

As for `Cn1ncc(Cl)c1CC1c2ccccc2C(=O)N1Cc1cn[nH]c1` (stereo not shown) [Compound 629, 2-((1H-pyrazol-4-yl)methyl)-3-((4-chloro-1-methyl-1H-pyrazol-5-yl)methyl)isoindolin-1-one], in test [1] (setting [5]), the negative logarithm of the EC50 (pEC50) was greater than 6.30. The “Enzymatic Emax” value in test [1] is recorded as “B (3≥B>2)”. For the same molecule, in test [2] (setting [6]), the pEC50 was greater than 6.30 and the maximal fold induction lay in the range of 1.2 to 1.5.

For `CN1CC(c2nn(C)c(CC3c4ccccc4C(=O)N3CC3CC4(CNC(=O)O4)C3)c2Cl)C1` (stereo not shown) [Compound 509, 2-((1-((4-chloro-1-methyl-3-(1-methylazetidin-3-yl)-1H-pyrazol-5-yl)methyl)-3-oxoisoindolin-2-yl)methyl)-5-oxa-7-azaspiro[3.4]octan-6-one], the negative logarithm of the EC50 (pEC50) in test [1] (setting [5]) is greater than 6.30. Further, the “Enzymatic Emax” value in test [1] is listed as “A (A>3)”. Moreover, in test [2] (setting [6]), the pEC50 is 5.30 to 6.30 and the maximal fold induction was greater than 1.5.

With `Cn1nc(OC(F)F)c(Cl)c1CC1c2ccccc2C(=O)N1Cc1ccc2[nH]nnc2c1` (stereo not shown) [Compound 397, 2-((1H-benzo[d][1,2,3]triazol-5-yl)methyl)-3-((4-chloro-3-(difluoromethoxy)-1-methyl-1H-pyrazol-5-yl)methyl)isoindolin-1-one], the pEC50 in test [1] (setting [5]) and in test [2] (setting [6]) was greater than 6.30 throughout. The “Enzymatic Emax” value in test [1] is given as “B (3≥B>2)”. For the same molecule, the maximal fold induction in test [2] (setting [6]) was greater than 1.5.

With `Cc1ccccc1CC1c2ccncc2C(=O)N1Cc1ccc2[nH]c(=O)oc2c1` (stereo not shown) [Compound 168, 6-((1-(2-methylbenzyl)-3-oxo-1,3-dihydro-2H-pyrrolo[3,4-c]pyridin-2-yl)methyl)benzo[d]oxazol-2(3H)-one], the negative-log EC50 (pEC50) in test [1] (setting [3]) is 5.30 to 6.30. The “Enzymatic Emax” value in test [1] is “A (A>3)”. In test [2] (setting [4]), the negative-log EC50 (pEC50) was 5.30 to 6.30 and the maximal fold induction was greater than 1.5.

`Cn1ncc(Cl)c1CC1c2ccccc2C(=O)N1Cc1n[nH]c(=O)o1` (stereo not shown) [Compound 632, 5-((1-((4-chloro-1-methyl-1H-pyrazol-5-yl)methyl)-3-oxoisoindolin-2-yl)methyl)-1,3,4-oxadiazol-2(3H)-one]: the negative-log EC50 (pEC50) in test [1] (setting [5]) was no more than 5.30. Besides, in test [1], the “Enzymatic Emax” value was “B (3≥B>2)”. In addition, in test [2] (setting [6]), the negative-log EC50 (pEC50) is 5.30 to 6.30 and the maximal fold induction was greater than 1.5.

As to `O=C1c2ccccc2CN1Cc1ccc(O)cc1` [Compound 12, 2-(4-hydroxybenzyl)isoindolin-1-one], the pEC50 in test [1] (setting [3]) is no more than 5.30. In addition, in test [1], the “Enzymatic Emax” value was “B (3≥B>2)”. Also, in test [2] (setting [4]), the pEC50 was 4.30 to 5.30 and the maximal fold induction lay in the range of 1.2 to 1.5.

For `Cc1ccccc1CC1c2ccccc2C(=O)N1Cc1ccc2[nH]c(=O)oc2c1` (stereo not shown) [Compound 124, 6-((1-(2-methylbenzyl)-3-oxoisoindolin-2-yl)methyl)benzo[d]oxazol-2(3H)-one], in test [1] (setting [3]), the negative-log EC50 (pEC50) is greater than 6.30. For the same molecule, the “Enzymatic Emax” value in test [1] is listed as “A (A>3)”. Besides, in test [2] (setting [4]), the negative-log EC50 (pEC50) is 5.30 to 6.30 and the maximal fold induction is greater than 1.5.

`O=C1c2ccccc2C(Cc2ccncc2)N1Cc1ccc2[nH]c(=O)oc2c1` (stereo not shown) [Compound 130, 6-((1-oxo-3-(pyridin-4-ylmethyl)isoindolin-2-yl)methyl)benzo[d]oxazol-2(3H)-one]: the pEC50 in test [1] (setting [3]) was no more than 5.30. Besides, the “Enzymatic Emax” value in test [1] is “B (3≥B>2)”. In test [2] (setting [4]), the pEC50 is 5.30 to 6.30 and the maximal fold induction was greater than 1.5.

Take `Cn1nnc(Cl)c1CC1c2ccccc2C(=O)N1Cc1ccc2[nH]nnc2c1` (stereo not shown) [Compound 334, 2-((1H-benzo[d][1,2,3]triazol-5-yl)methyl)-3-((4-chloro-1-methyl-1H-1,2,3-triazol-5-yl)methyl)isoindolin-1-one]: the pEC50 in test [1] (setting [5]) was 5.30 to 6.30. Further, the “Enzymatic Emax” value in test [1] was “A (A>3)”. For the same molecule, in test [2] (setting [6]), the negative logarithm of the EC50 (pEC50) was greater than 6.30 and the maximal fold induction is greater than 1.5.

In the case of `COc1ccc(CN2C(=O)c3ccccc3C2Cc2ncccc2Br)cn1` (stereo not shown) [Compound 513, 3-((3-bromopyridin-2-yl)methyl)-2-((6-methoxypyridin-3-yl)methyl)isoindolin-1-one], the pEC50 in test [1] (setting [5]) and in test [2] (setting [6]) was 5.30 to 6.30 each time. For the same molecule, in test [1], the “Enzymatic Emax” value is given as “B (3≥B>2)”. Besides, the maximal fold induction in test [2] (setting [6]) was greater than 1.5.

Consider `Cn1ncc(Cl)c1CC1c2cc(C3CC3)ccc2C(=O)N1CC1CC2(CNC(=O)O2)C1` (stereo not shown) [Compound 311, 2-((3-((4-chloro-1-methyl-1H-pyrazol-5-yl)methyl)-5-cyclopropyl-1-oxoisoindolin-2-yl)methyl)-5-oxa-7-azaspiro[3.4]octan-6-one], for which, in test [1] (setting [3]), the pEC50 is 5.30 to 6.30. In addition, the “Enzymatic Emax” value in test [1] is on record as “B (3≥B>2)”. In test [2] (setting [4]), the pEC50 is greater than 6.30 and the maximal fold induction was greater than 1.5.

In the case of `Cn1ncc(Cl)c1CC1c2ccccc2C(=O)N1Cc1ccc2c(c1)nnn2C` (stereo not shown) [Compound 557, 3-((4-chloro-1-methyl-1H-pyrazol-5-yl)methyl)-2-((1-methyl-1H-benzo[d][1,2,3]triazol-5-yl)methyl)isoindolin-1-one], the values for the negative-log EC50 (pEC50) in test [1] (setting [5]) and in test [2] (setting [6]) were 5.30 to 6.30 and greater than 6.30, respectively. Also, the “Enzymatic Emax” value in test [1] was “A (A>3)”. Also, the maximal fold induction in test [2] (setting [6]) was greater than 1.5.

Regarding `Cn1ccc(Cl)c(CC2c3ccccc3C(=O)N2CC2CC3(CNC(=O)O3)C2)c1=O` (stereo not shown) [Compound 480, 2-((1-((4-chloro-1-methyl-2-oxo-1,2-dihydropyridin-3-yl)methyl)-3-oxoisoindolin-2-yl)methyl)-5-oxa-7-azaspiro[3.4]octan-6-one], the negative logarithm of the EC50 (pEC50) in test [1] (setting [5]) was greater than 6.30. Also, the “Enzymatic Emax” value in test [1] is recorded as “B (3≥B>2)”. Besides, in test [2] (setting [6]), the pEC50 is greater than 6.30 and the maximal fold induction was greater than 1.5.

With `COc1ccc(CN2C(=O)c3ccc(OC(F)F)cc3C2Cc2c(Cl)cnn2C)cn1` (stereo not shown) [Compound 619, 3-((4-chloro-1-methyl-1H-pyrazol-5-yl)methyl)-5-(difluoromethoxy)-2-((6-methoxypyridin-3-yl)methyl)isoindolin-1-one], the negative logarithm of the EC50 (pEC50) in test [1] (setting [5]) is no more than 5.30. The “Enzymatic Emax” value in test [1] was “A (A>3)”. In test [2] (setting [6]), the negative-log EC50 (pEC50) was 5.30 to 6.30 and the maximal fold induction was greater than 1.5.

Take `Cc1ccc2c(c1)C(=O)N(Cc1ccc3[nH]c(=O)oc3c1)C2=O` [Compound 297, 5-methyl-2-((2-oxo-2,3-dihydrobenzo[d]oxazol-6-yl)methyl)isoindoline-1,3-dione]: the pEC50 in test [1] (setting [3]) is 5.30 to 6.30. The “Enzymatic Emax” value in test [1] was “C (2≥C)”. In test [2] (setting [4]), the pEC50 is 5.30 to 6.30 and the maximal fold induction was 1.2 to 1.5.

With `O=C1c2ccccc2C(Cc2ncccc2Cl)N1Cc1ccc2[nH]c(=O)oc2c1` (stereo not shown) [Compound 159, 6-((1-((3-chloropyridin-2-yl)methyl)-3-oxoisoindolin-2-yl)methyl)benzo[d]oxazol-2(3H)-one], the pEC50 in test [1] (setting [3]) and in test [2] (setting [4]) was greater than 6.30 throughout. For the same molecule, the “Enzymatic Emax” value in test [1] is reported as “A (A>3)”. For the same molecule, the maximal fold induction in test [2] (setting [4]) was greater than 1.5.

Take `O=C1c2ccccc2C(Cc2ccccc2Cl)N1Cc1ccc2[nH]c(=O)oc2c1` (stereo not shown) [Compound 157, 6-((1-(2-chlorobenzyl)-3-oxoisoindolin-2-yl)methyl)benzo[d]oxazol-2(3H)-one]: the negative logarithm of the EC50 (pEC50) in test [1] (setting [3]) is greater than 6.30; in test [2] (setting [4]), 5.30 to 6.30. Further, in test [1], the “Enzymatic Emax” value is listed as “A (A>3)”. Further, the maximal fold induction in test [2] (setting [4]) is greater than 1.5.

On to `N#Cc1ccccc1CC1c2ccccc2C(=O)N1Cc1ccc(O)c(F)c1` (stereo not shown) [Compound 195, 2-((2-(3-fluoro-4-hydroxybenzyl)-3-oxoisoindolin-1-yl)methyl)benzonitrile], for which the pEC50 in test [1] (setting [3]) and in test [2] (setting [4]) was greater than 6.30 throughout. The “Enzymatic Emax” value in test [1] was “B (3≥B>2)”. The maximal fold induction in test [2] (setting [4]) was 1.2 to 1.5.

Turning to `Cn1nc(C(F)F)c(Cl)c1CC1c2ccccc2C(=O)N1Cc1ccc2[nH]nnc2c1` (stereo not shown) [Compound 361, 2-((1H-benzo[d][1,2,3]triazol-5-yl)methyl)-3-((4-chloro-3-(difluoromethyl)-1-methyl-1H-pyrazol-5-yl)methyl)isoindolin-1-one], the pEC50 in test [1] (setting [5]) and in test [2] (setting [6]) was greater than 6.30 in each case. The “Enzymatic Emax” value in test [1] was “B (3≥B>2)”. For the same molecule, the maximal fold induction in test [2] (setting [6]) is greater than 1.5.

With `O=C1c2c(Br)cccc2CN1Cc1ccc(O)cc1` [Compound 29, 7-bromo-2-(4-hydroxybenzyl)isoindolin-1-one], in test [1] (setting [3]), the negative logarithm of the EC50 (pEC50) was 5.30 to 6.30. Further, in test [1], the “Enzymatic Emax” value is reported as “A (A>3)”. In addition, in test [2] (setting [4]), the negative logarithm of the EC50 (pEC50) is 4.30 to 5.30 and the maximal fold induction was greater than 1.5.

Consider `N#Cc1ccc2c(c1)C(Cc1c(Cl)ccnc1C#N)N(Cc1ccc3[nH]c(=O)oc3c1)C2=O` (stereo not shown) [Compound 276, 3-((4-chloro-2-cyanopyridin-3-yl)methyl)-1-oxo-2-((2-oxo-2,3-dihydrobenzo[d]oxazol-6-yl)methyl)isoindoline-5-carbonitrile], for which the pEC50 in test [1] (setting [3]) and in test [2] (setting [4]) was greater than 6.30 in each case. The “Enzymatic Emax” value in test [1] is listed as “A (A>3)”. The maximal fold induction in test [2] (setting [4]) is greater than 1.5.

What is called pEC50 is −log10 of the EC50, conventionally taken in molar units.
